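Step 1: Grow cells in 96-well plates. Step 2: Expose to compound for 48 hours at 5 concentrations. Step 3: Interpolate endpoints linearly; if unreached, use highest concentration. GI50: concentration for 50% inhibition of growth. TGI: concentration producing complete growth inhibition.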
Legend:
Experiment in all cases: NCI tumour cell line growth inhibition, 48 h
[1] = test system: OVCAR-3 ovarian
[2] = test system: K-562 leukemia
[3] = test system: OVCAR-5 ovarian
[4] = test system: LOX IMVI melanoma
[5] = test system: UO-31 renal
[6] = test system: NCI-H23 lung
[7] = test system: SNB-19 CNS
[8] = test system: HOP-62 NSCLC
[9] = test system: BT-549 breast
[10] = test system: A498 renal
[11] = test system: NCI-H522 lung
[12] = test system: SN12C renal
[13] = test system: MDA-MB-468 breast
[14] = test system: CAKI-1 renal
[15] = test system: SK-OV-3 ovarian
[16] = test system: SR leukemia
[17] = test system: EKVX NSCLC
[18] = test system: HT29 colon
[19] = test system: HOP-92 NSCLC
[20] = test system: NCI/ADR-RES ovarian
[21] = test system: IGROV1 ovarian
[22] = test system: NCI-H226 lung
[23] = test system: NCI-H460 lung
[24] = test system: TK-10 renal
[25] = test system: MDA-MB-435
[26] = test system: A549 NSCLC
[27] = test system: HCT-116 colon
[28] = test system: SF-539 CNS
[29] = test system: MCF7 breast
[30] = test system: MALME-3M melanoma

CN(CCO)c1oc(-c2ccccc2)nc1[P+](c1ccccc1)(c1ccccc1)c1ccccc1
TGI [1]: 12.6 µM | GI50 [2]: 1.01 µM | TGI [2]: 13.6 µM | GI50 [3]: 2.27 µM | TGI [3]: 8.21 µM | GI50 [4]: 2.21 µM | TGI [4]: 10.1 µM | GI50 [5]: 19 µM | TGI [5]: 54.3 µM | GI50 [6]: 2.27 µM | TGI [6]: 7.25 µM | GI50 [7]: 2.01 µM | TGI [7]: 7.95 µM | GI50 [8]: 3.49 µM | TGI [8]: 13 µM | GI50 [9]: 1.78 µM | TGI [9]: 7.08 µM | GI50 [10]: 6.82 µM | TGI [10]: 22.8 µM | GI50 [11]: 0.854 µM | TGI [11]: 4.05 µM | GI50 [12]: 2.4 µM | TGI [12]: 6.88 µM | GI50 [13]: 0.285 µM | TGI [13]: 1.37 µM | GI50 [14]: 4 µM | TGI [14]: 24.9 µM | GI50 [15]: 2.98 µM | TGI [15]: 8.21 µM | GI50 [16]: 1.64 µM | TGI [16]: 12.4 µM | GI50 [17]: 2.35 µM | TGI [17]: 13.4 µM | GI50 [18]: 2.82 µM | TGI [18]: 21.2 µM | GI50 [19]: 1.22 µM | TGI [19]: 4.9 µM | GI50 [20]: > 100 µM | TGI [20]: > 100 µM | GI50 [21]: 0.802 µM | TGI [21]: 7.45 µM | GI50 [22]: 2.73 µM | TGI [22]: 10.9 µM | GI50 [23]: 2.74 µM | TGI [23]: 12.4 µM | GI50 [24]: 3.5 µM | TGI [24]: 15.2 µM | GI50 [25]: 1.6 µM | TGI [25]: 9.66 µM | GI50 [26]: 5.22 µM | TGI [26]: 34.6 µM | GI50 [27]: 2.84 µM | TGI [27]: 12 µM | GI50 [28]: 2.74 µM | TGI [28]: 12.1 µM | GI50 [29]: 1.21 µM | TGI [29]: 6.84 µM | GI50 [30]: 1.6 µM | TGI [30]: 9.14 µM

From PubChem BioAssay (NCI)
